This note sets out measurements from US4673676A, “Pyrimidoisoquinoline derivatives useful for treating allergies” (Fujisawa Pharmaceutical Co., Ltd., priority 1983, dated 1987).

The assay concerns PCA (Passive Cutaneous Anaphylaxis) reaction. Nature of the assay: Inhibitory effect on PCA (Passive Cutaneous Anaphylaxis) reaction. Particulars: rat, 1 mg/kg intravenously, 5 minutes before the challenge with antigen; percent inhibition of dye spot size vs control. It counts as in vivo, male SD (Spraque-Dawley) strain rats. How it is done:
A solution of egg albumin (2 mg) in B. pertussisdiphtheria-tetanus mixed vaccine (1 ml) was mixed with Freund incomplete adjuvant (1 ml) to give an emulsion. The emulsion was given subcutaneously in a single dose of 1 ml divided equally (0.25 ml) to the four foot pads of male SD (Spraque-Dawley) strain rats aged 8 weeks, each weighing about 300 g.
8 days after the immunization, blood samples were collected from femoral artery of the rats and allowed to stand under ice-cooling for 5 hours. The separated supernatant was centrifuged at 4° C. (10,000 r.p.m.×1 hour). The antisera thus obtained were stored at -80° C. prior to use.
Male SD-strain rats aged 8 weeks, weighing 250 to 300 g, were used for PCA reaction with the homologous reaginic antiserum as prepared above. Each 0.1 ml of 32 fold diluted antiserum were injected intradermally at separate sites on the back of rats clipped free of hair, and 48 hours later, 1 ml of aqueous solution containing each 5 mg of the egg albumin and Evans blue was injected intravenously to evoke PCA reaction. Test compound was given to the animals intravenously 5 minutes before the challenge with antigen. Control group received vehicle. Each dose group consisted of 4 animals. […] The results were expressed by percent inhibition values calculated from averaged values of the longest and shortest diameters for each spot in comparison with those in control group. […]

Regarding “N-(1H-tetrazol-5-yl)-10-(2,3-dimethylpentanoylamino)-7-methyl-4-oxo-4H-pyrimido[2,1-a]isoquinoline-3-carboxamide [Example 11]”, the Inhibitory effect is 100%.
